Results taken from PMC4038355 (Molecular microbiology, 2014).

Molecular target: T1, TstT (LVIS_0852) (Levilactobacillus brevis, UniProt Q03S28)
T1 sequence (Q03S28 1-120): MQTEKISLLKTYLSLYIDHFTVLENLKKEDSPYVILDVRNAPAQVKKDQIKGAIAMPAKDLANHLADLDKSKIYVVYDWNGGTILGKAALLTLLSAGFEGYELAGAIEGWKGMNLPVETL
Assay type: biochemical

Which “% decrease at 100 μM” value does the source give for O=S(O)O [sulfite] here?
The value was 40%.
